Data from the NIST ThermoML archive (doi:10.1021/je800334m).
Numbers after ± are expanded uncertainties.

Assay: excess molar enthalpy (molar enthalpy of mixing); xn = mol fraction of the nth substance listed
Details: Liquid, Flow calorimetry

CN(C)CCO [2-(N,N-dimethylamino)ethanol] + CO
Details	excess molar enthalpy [kcal/mol]
298.2 K, 100 kPa, x1 = 0.0499	-0.0602 ± 0.00167
298.2 K, 100 kPa, x1 = 0.099	-0.108 ± 0.00263
298.2 K, 100 kPa, x1 = 0.1495	-0.144 ± 0.00311
298.2 K, 100 kPa, x1 = 0.1981	-0.172 ± 0.00382
298.2 K, 100 kPa, x1 = 0.2479	-0.193 ± 0.00406
298.2 K, 100 kPa, x1 = 0.2982	-0.207 ± 0.00454
298.2 K, 100 kPa, x1 = 0.3481	-0.214 ± 0.00454
298.2 K, 100 kPa, x1 = 0.3968	-0.217 ± 0.00454
298.2 K, 100 kPa, x1 = 0.4466	-0.214 ± 0.00454
298.2 K, 100 kPa, x1 = 0.4972	-0.207 ± 0.00454
298.2 K, 100 kPa, x1 = 0.5483	-0.197 ± 0.0043
298.2 K, 100 kPa, x1 = 0.5992	-0.183 ± 0.00406
298.2 K, 100 kPa, x1 = 0.6494	-0.167 ± 0.00359
298.2 K, 100 kPa, x1 = 0.6981	-0.149 ± 0.00335
298.2 K, 100 kPa, x1 = 0.7506	-0.127 ± 0.00287
298.2 K, 100 kPa, x1 = 0.8007	-0.105 ± 0.00234
298.2 K, 100 kPa, x1 = 0.8477	-0.0821 ± 0.00186
298.2 K, 100 kPa, x1 = 0.8977	-0.0564 ± 0.00136
298.2 K, 100 kPa, x1 = 0.9512	-0.027 ± 0.000669
298.2 K, 10000 kPa, x1 = 0.05	-0.0659 ± 0.00174
298.2 K, 10000 kPa, x1 = 0.0993	-0.112 ± 0.00263
298.2 K, 10000 kPa, x1 = 0.1479	-0.146 ± 0.00311
298.2 K, 10000 kPa, x1 = 0.1986	-0.175 ± 0.00382
298.2 K, 10000 kPa, x1 = 0.2485	-0.194 ± 0.0043
298.2 K, 10000 kPa, x1 = 0.2961	-0.207 ± 0.00454
298.2 K, 10000 kPa, x1 = 0.3458	-0.214 ± 0.00454
298.2 K, 10000 kPa, x1 = 0.3976	-0.216 ± 0.00454
298.2 K, 10000 kPa, x1 = 0.4474	-0.214 ± 0.00454
298.2 K, 10000 kPa, x1 = 0.4981	-0.207 ± 0.00454
298.2 K, 10000 kPa, x1 = 0.5447	-0.198 ± 0.0043
298.2 K, 10000 kPa, x1 = 0.5952	-0.184 ± 0.00406
298.2 K, 10000 kPa, x1 = 0.645	-0.168 ± 0.00359
298.2 K, 10000 kPa, x1 = 0.6988	-0.148 ± 0.00311
298.2 K, 10000 kPa, x1 = 0.7452	-0.129 ± 0.00287
298.2 K, 10000 kPa, x1 = 0.7948	-0.108 ± 0.00239
298.2 K, 10000 kPa, x1 = 0.8481	-0.0818 ± 0.00186
298.2 K, 10000 kPa, x1 = 0.898	-0.0562 ± 0.00136
313.2 K, 100 kPa, x1 = 0.0499	-0.062 ± 0.00167
313.2 K, 100 kPa, x1 = 0.099	-0.109 ± 0.00263
313.2 K, 100 kPa, x1 = 0.1495	-0.148 ± 0.00335
313.2 K, 100 kPa, x1 = 0.1981	-0.177 ± 0.00382
313.2 K, 100 kPa, x1 = 0.2479	-0.197 ± 0.0043
313.2 K, 100 kPa, x1 = 0.2982	-0.21 ± 0.00454
313.2 K, 100 kPa, x1 = 0.3481	-0.217 ± 0.00454
313.2 K, 100 kPa, x1 = 0.3968	-0.219 ± 0.00478
313.2 K, 100 kPa, x1 = 0.4466	-0.217 ± 0.00454
313.2 K, 100 kPa, x1 = 0.4972	-0.211 ± 0.00454
313.2 K, 100 kPa, x1 = 0.5483	-0.199 ± 0.0043
313.2 K, 100 kPa, x1 = 0.5992	-0.187 ± 0.00406
313.2 K, 100 kPa, x1 = 0.6494	-0.17 ± 0.00359
313.2 K, 100 kPa, x1 = 0.6981	-0.151 ± 0.00335
313.2 K, 100 kPa, x1 = 0.7506	-0.13 ± 0.00287
313.2 K, 100 kPa, x1 = 0.8007	-0.106 ± 0.00237
313.2 K, 100 kPa, x1 = 0.8477	-0.0831 ± 0.00189
313.2 K, 100 kPa, x1 = 0.8977	-0.0566 ± 0.00136
313.2 K, 100 kPa, x1 = 0.9512	-0.028 ± 0.000693
313.2 K, 10000 kPa, x1 = 0.0502	-0.0624 ± 0.0017
313.2 K, 10000 kPa, x1 = 0.0996	-0.111 ± 0.00263
313.2 K, 10000 kPa, x1 = 0.1484	-0.148 ± 0.00335
313.2 K, 10000 kPa, x1 = 0.1992	-0.177 ± 0.00382
313.2 K, 10000 kPa, x1 = 0.2491	-0.198 ± 0.0043
313.2 K, 10000 kPa, x1 = 0.2968	-0.211 ± 0.00454
313.2 K, 10000 kPa, x1 = 0.3465	-0.219 ± 0.00478
313.2 K, 10000 kPa, x1 = 0.3983	-0.222 ± 0.00478
313.2 K, 10000 kPa, x1 = 0.4482	-0.219 ± 0.00478
313.2 K, 10000 kPa, x1 = 0.4989	-0.213 ± 0.00454
313.2 K, 10000 kPa, x1 = 0.5455	-0.203 ± 0.0043
313.2 K, 10000 kPa, x1 = 0.596	-0.19 ± 0.00406
313.2 K, 10000 kPa, x1 = 0.6457	-0.174 ± 0.00382
313.2 K, 10000 kPa, x1 = 0.6995	-0.153 ± 0.00335
313.2 K, 10000 kPa, x1 = 0.7458	-0.133 ± 0.00287
313.2 K, 10000 kPa, x1 = 0.7953	-0.111 ± 0.00239
313.2 K, 10000 kPa, x1 = 0.8485	-0.0847 ± 0.00194
313.2 K, 10000 kPa, x1 = 0.8983	-0.0578 ± 0.00141
328.2 K, 100 kPa, x1 = 0.1479	-0.141 ± 0.00311
328.2 K, 100 kPa, x1 = 0.1972	-0.171 ± 0.00382
328.2 K, 100 kPa, x1 = 0.2469	-0.192 ± 0.00406
328.2 K, 100 kPa, x1 = 0.2976	-0.206 ± 0.0043
328.2 K, 100 kPa, x1 = 0.3469	-0.214 ± 0.00454
328.2 K, 100 kPa, x1 = 0.3974	-0.216 ± 0.00454
328.2 K, 100 kPa, x1 = 0.4466	-0.214 ± 0.00454
328.2 K, 100 kPa, x1 = 0.4956	-0.207 ± 0.00454
328.2 K, 100 kPa, x1 = 0.5465	-0.197 ± 0.0043
328.2 K, 100 kPa, x1 = 0.5963	-0.183 ± 0.00406
328.2 K, 100 kPa, x1 = 0.6473	-0.167 ± 0.00359
328.2 K, 10000 kPa, x1 = 0.1487	-0.142 ± 0.00311
328.2 K, 10000 kPa, x1 = 0.1983	-0.171 ± 0.00382
328.2 K, 10000 kPa, x1 = 0.2481	-0.194 ± 0.0043
328.2 K, 10000 kPa, x1 = 0.2973	-0.207 ± 0.00454
328.2 K, 10000 kPa, x1 = 0.3465	-0.216 ± 0.00454
328.2 K, 10000 kPa, x1 = 0.397	-0.218 ± 0.00478
328.2 K, 10000 kPa, x1 = 0.446	-0.217 ± 0.00454
328.2 K, 10000 kPa, x1 = 0.4972	-0.21 ± 0.00454
328.2 K, 10000 kPa, x1 = 0.5455	-0.201 ± 0.0043
328.2 K, 10000 kPa, x1 = 0.5979	-0.187 ± 0.00406
328.2 K, 10000 kPa, x1 = 0.6457	-0.172 ± 0.00382
328.2 K, 10000 kPa, x1 = 0.6973	-0.153 ± 0.00335
